Consider one molecule from patent publication US10383338B2, “Compositions and methods for making and using hydrolytic enzymes for degrading polysaccharides made by foodborne pathogenic bacteria” (University of Wyoming, priority 2014, dated 2019).

Each structure is given as a SMILES string. Like-named read-outs stand apart in the source and are kept apart here.

The test system of one assay is L. monocytogenes. The class given is cell-based. The following applies: 1600 ppm, 10 min, room temperature; for killing of wild-type strain EGD-e: HTM-grown culture.
Assay [1] has as its system wild-type L. monocytogenes EGD-e. Put plainly: Disinfection tolerance, wild-type strain. The class given is cell-based, Listeria monocytogenes. The following applies: sodium hypochlorite 1600 ppm, 10 min, room temperature; HTM-grown cultures. The procedure:
FIGS. 6A-6D: Role of the c-di-GMP-induced EPS in biofilm formation, cell aggregation, and tolerance of L. monocytogenes to disinfectants and desiccation. […] Cultures were grown for 6 days at 30° C. in LB (top panel) or LB supplemented with 3% glycerol (bottom panel). Shown are average results from two biological replicates, where each strain was grown in six wells in a replicate (i.e., six technical replicates). Black circle, wild type; red square, ΔpdeB/C/D; green triangle, ΔpdeB/C/D ΔpssC; blue cross, ΔpdeB/C/D ΔpssE. […] Overnight cultures grown in BHI were inoculated into HTM liquid medium at A600 of 0.01 and incubated at 30° C. with gentle shaking (rotary shaker, 125 rpm) for 48 h. 1, ΔpdeB/C/D; 2, wild type; 3, ΔpdeB/C/D ΔpssC; 4, ΔpdeB/C/D ΔpssE. […] Aliquots of the HTM-grown cultures were mixed with disinfectant solutions for 10 min at room temperature. […]
EPS is known to protect bacteria from environmental insults. Here, the role of L. monocytogenes EPS in providing tolerance to disinfection and desiccation was evaluated. […]
Solutions of sodium hypochlorite, hydrogen peroxide, and benzalkonium chloride (Sigma-Aldrich and Sigma Life Sciences) were prepared in sterile phosphate-buffered saline with disinfection concentrations of 1600 ppm, 200 mM, and 100 ppm, respectively. […] Serial dilutions were plated on BHI agar and colonies were counted following a 48-h incubation at 37° C.

`OCl` [sodium hypochlorite]: in the assay with L. monocytogenes, the “survival of EPS producing ΔpdeB/C/D mutant relative to wild type” value was > 10^6 fold and the “killing of wild-type strain EGD-e” value is “highly effective in killing the wild-type strain”. Also, in the assay with L. monocytogenes (listed as SH), the “killing of wild-type strain EGD-e” value is recorded as “lack of survivors”. In addition, the “killing / survivors after disinfectant treatment” value in assay [1] is recorded as “highly effective in killing”.
